Measurements reported in article PMC3674138 (Clinical cancer research : an official journal of the …, 2013).
Like-named read-outs stand apart in the source and are kept apart here. Each block holds one molecule with its values, some of them ahead of it.

Experiments:
[1] = cited from earlier work
[2] = Unbound vismodegib plasma concentration; assay type: in vivo, human; details: for unbound vismodegib concentrations: after daily dosing 150 mg, mean ± SD
[3] = Adverse events at least possibly related to vismodegib during daily dosing; assay type: in vivo, human
[4] = test system: advanced solid tumors; experiment: Anticancer activity by RECIST 1.1 in advanced solid tumor patients; assay type: in vivo, human
[5] = test system: basal cell carcinoma (BCC); details: oral 150 mg daily, cited from earlier work
[6] = high permeability, low solubility; cited from earlier work
[7] = clinical; details: human, in vivo, 150 mg, AUC0–168
[8] = clinical; details: human, in vivo, 150 mg, AUC0–24
[9] = all patients during daily dosing (both groups)
[10] = 46 patients evaluable for response, 150 mg daily

SMILES: CS(=O)(=O)CCNCc1ccc(-c2ccc3ncnc(Nc4ccc(OCc5cccc(F)c5)c(Cl)c4)c3c2)o1 [lapatinib]
increase in exposure (area-under-the-curve; AUC) with food [1]: 150%

unbound vismodegib concentrations ([2]; fasting group): 79 ± 53 ng/mL
unbound vismodegib concentrations ([2]; fed group): 103 ± 49 ng/mL
Steady-state unbound drug concentrations as share of total concentrations ([2]; daily dosing, fasting and fed groups): less than 1%
AUC(0-t) [7]: 417 µg·h/mL
AUC(0-t) [8]: 239 µg·h/mL
SMILES: CS(=O)(=O)c1ccc(C(=O)Nc2ccc(Cl)c(-c3ccccn3)c2)c(Cl)c1 [vismodegib]
Alopecia, All grades (%) ([3]; Fasting (n=31), 150 mg daily): 4 (13) n (%)
Anorexia, All grades (%) ([3]; Fasting (n=31), 150 mg daily): 9 (29) n (%)
Diarrhea, All grades (%) ([3]; Fasting (n=31), 150 mg daily): 4 (13) n (%)
Dizziness, All grades (%) ([3]; Fasting (n=31), 150 mg daily): 3 (10) n (%)
Dysgeusia, All grades (%) ([3]; Fasting (n=31), 150 mg daily): 8 (26) n (%)
Dyspnea, All grades (%) ([3]; Fasting (n=31), 150 mg daily): 3 (10) n (%)
Fatigue, All grades (%) ([3]; Fasting (n=31), 150 mg daily): 11 (35) n (%)
Fatigue, Grade 3 (%) ([3]; Fasting (n=31), 150 mg daily): 2 (6) n (%)
Hyperglycemia, All grades (%) ([3]; Fasting (n=31), 150 mg daily): 2 (6) n (%)
Hyperkalemia, All grades (%) ([3]; Fasting (n=31), 150 mg daily): 1 (3) n (%)
Hypophosphatemia, All grades (%) ([3]; Fasting (n=31), 150 mg daily): 3 (10) n (%)
Hypophosphatemia, Grade 3 (%) ([3]; Fasting (n=31), 150 mg daily): 1 (3) n (%)
Myalgia, All grades (%) ([3]; Fasting (n=31), 150 mg daily): 6 (19) n (%)
Nausea, All grades (%) ([3]; Fasting (n=31), 150 mg daily): 10 (32) n (%)
Vomiting, All grades (%) ([3]; Fasting (n=31), 150 mg daily): 4 (13) n (%)
Weight loss, All grades (%) ([3]; Fasting (n=31), 150 mg daily): 5 (16) n (%)
Alopecia, All grades (%) ([3]; Fed (n=30), 150 mg daily): 1 (3) n (%)
Anorexia, All grades (%) ([3]; Fed (n=30), 150 mg daily): 13 (43) n (%)
Diarrhea, All grades (%) ([3]; Fed (n=30), 150 mg daily): 3 (10) n (%)
Dizziness, All grades (%) ([3]; Fed (n=30), 150 mg daily): 2 (7) n (%)
Dysgeusia, All grades (%) ([3]; Fed (n=30), 150 mg daily): 13 (43) n (%)
Fatigue, All grades (%) ([3]; Fed (n=30), 150 mg daily): 11 (37) n (%)
Fatigue, Grade 3 (%) ([3]; Fed (n=30), 150 mg daily): 1 (3) n (%)
Hyperglycemia, All grades (%) ([3]; Fed (n=30), 150 mg daily): 1 (3) n (%)
Hyperkalemia, All grades (%) ([3]; Fed (n=30), 150 mg daily): 1 (3) n (%)
Hyperkalemia, Grade 3 (%) ([3]; Fed (n=30), 150 mg daily): 1 (3) n (%)
Myalgia, All grades (%) ([3]; Fed (n=30), 150 mg daily): 7 (23) n (%)
Nausea, All grades (%) ([3]; Fed (n=30), 150 mg daily): 9 (30) n (%)
Neutropenia, All grades (%) ([3]; Fed (n=30), 150 mg daily): 1 (3) n (%)
Neutropenia, Grade 3 (%) ([3]; Fed (n=30), 150 mg daily): 1 (3) n (%)
Vomiting, All grades (%) ([3]; Fed (n=30), 150 mg daily): 3 (10) n (%)
Weight loss, All grades (%) ([3]; Fed (n=30), 150 mg daily): 2 (7) n (%)
anorexia, any grade, frequency [3, 9]: 36%
dysgeusia, any grade, frequency [3, 9]: 34%
fatigue, Grade 3, frequency [3, 9]: 5%
fatigue, any grade, frequency [3, 9]: 36%
hyperkalemia, Grade 3, frequency [3, 9]: 2%
hypophosphatemia, Grade 3, frequency [3, 9]: 2%
nausea, any grade, frequency [3, 9]: 31%
neutropenia, Grade 3, frequency [3, 9]: 2%
objective responses (RECIST 1.1) [4, 10]: no objective responses
patients with stable disease [4, 10]: Nine
range of duration of stable disease ([4]; patients with stable disease, longest in a patient with BCC): 8 to 152 weeks
response rate ([5]; locally advanced BCC): 43%
response rate ([5]; metastatic BCC): 30%
Biopharmaceutics Classification System class [6]: 2
